Reference: patent US20140296212A1, “SUBSTITUTED PHENOXYPROPYLCYCLOAMINE DERIVATIVES AS HISTAMINE-3 (H3) RECEPTOR LIGANDS” (CEPHALON, INC., priority 2009, published 2014)
Where two headings read alike, the source gives them in different places.

Legend:
human H3 receptor = target: T1, human H3 receptor (Homo sapiens, UniProt Q9Y5N1); assay: Human H3 radioligand binding ([3H]-N-alpha-methylhistamine, SPA); settings: membranes of CHO cells expressing human H3
T1 construct: expressed in transfected cells
T1 sequence (Q9Y5N1 whole entry): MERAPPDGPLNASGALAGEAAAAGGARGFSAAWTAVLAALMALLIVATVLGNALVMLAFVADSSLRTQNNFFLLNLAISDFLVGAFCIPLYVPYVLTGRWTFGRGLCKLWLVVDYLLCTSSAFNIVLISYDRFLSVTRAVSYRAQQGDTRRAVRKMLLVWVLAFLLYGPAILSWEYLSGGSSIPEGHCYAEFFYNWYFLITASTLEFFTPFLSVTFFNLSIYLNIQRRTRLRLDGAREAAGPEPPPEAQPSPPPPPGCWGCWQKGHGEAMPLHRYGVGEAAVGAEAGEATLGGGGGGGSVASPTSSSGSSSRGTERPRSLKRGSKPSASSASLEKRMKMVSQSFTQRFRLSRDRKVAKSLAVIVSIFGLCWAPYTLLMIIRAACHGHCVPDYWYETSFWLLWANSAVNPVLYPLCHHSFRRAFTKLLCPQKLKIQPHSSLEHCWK
Method in brief: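 Membranes from H3-expressing cells (10 μg protein/well) in 50 mM Tris HCl pH 7.4, 5 mM MgCl2, 0.1% BSA with ~1 nM [3H]-N-alpha-methylhistamine and compound (0.01 nM–30 μM), SPA beads, 4 h, room temperature, dark. Non-specific binding defined with 10 μM clobenpropit; bound radioligand read by scintillation counting.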

[1] = target: T2, rat histamine H3 receptor (Rattus norvegicus, UniProt Q9QYN8); assay: Rat H3 radioligand binding ([3H]-N-alpha-methylhistamine, SPA)
T2 construct: encoding the entire 445-amino-acid rat histamine H3 receptor; expressed in transfected cells
T2 sequence (Q9QYN8 whole entry): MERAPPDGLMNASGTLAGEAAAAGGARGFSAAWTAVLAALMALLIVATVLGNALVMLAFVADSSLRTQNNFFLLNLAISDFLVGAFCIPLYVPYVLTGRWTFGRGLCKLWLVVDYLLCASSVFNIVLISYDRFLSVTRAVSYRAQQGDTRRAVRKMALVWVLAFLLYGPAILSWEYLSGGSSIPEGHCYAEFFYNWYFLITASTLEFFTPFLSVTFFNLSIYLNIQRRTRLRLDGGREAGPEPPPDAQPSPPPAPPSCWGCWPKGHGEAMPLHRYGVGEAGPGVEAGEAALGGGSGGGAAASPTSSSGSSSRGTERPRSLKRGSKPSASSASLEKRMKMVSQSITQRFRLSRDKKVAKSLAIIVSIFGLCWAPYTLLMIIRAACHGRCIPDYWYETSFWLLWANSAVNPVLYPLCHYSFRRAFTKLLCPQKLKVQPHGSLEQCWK
Method in brief: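 Membranes from CHO-A3 cells stably expressing full-length rat H3 receptor (445 aa) incubated with ~1 nM [3H]-N-alpha-methylhistamine and compound (0.01 nM–30 μM) in 50 mM Tris HCl pH 7.4, 5 mM MgCl2, 0.1% BSA, 4 h, room temperature; SPA bead read-out. Non-specific binding defined with 10 μM clobenpropit.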

[2] = membranes of CHO-A3 cells expressing rat H3, [3H]-N-alpha-methylhistamine, read-out: Rat H3 Ki

Row | SMILES | Ki (human H3 receptor) | Ki [1, 2] | melting point | Ki [1]
1 | CC(C(=O)c1ccc(OCCCN2CCC[C@H]2C)cc1)N1CCOCC1 (stereo partly drawn) [Example 37, 1-{4-[3-((R)-2-Methyl-pyrrolidin-1-yl)-propoxy]-phenyl}-2-morpholin-4-yl-propan-1-one] | 0.1 to 100 nM |  | 231 °C | 101 to 500 nM
2 | C[C@@H]1CCCN1CCCOc1cccc(C(=O)CN2CCC(F)(F)CC2)c1 [Example 154, 2-(4,4-Difluoro-piperidin-1-yl)-1-{3-[3-((R)-2-methyl-pyrrolidin-1-yl)-propoxy]-phenyl}-ethanone] | 0.1 to 100 nM | 101 to 500 nM | 110 to 120 °C | 
3 | Cc1cc(C(=O)CN2CCC(F)(F)CC2)cc(C)c1OCCCN1CCC[C@H]1C [Example 95, 2-(4,4-Difluoro-piperidin-1-yl)-1-{3,5-dimethyl-4-[3-((R)-2-methyl-pyrrolidin-1-yl)-propoxy]-phenyl}-ethanone] | 101 to 500 nM | > 1000 nM | 140 to 142 °C | 
4 | C[C@@H]1CCCN1CCCOc1ccc(C(=O)CN2CCN(c3ccc(C(F)(F)F)cc3)CC2)cc1 [Example 105, 1-{4-[3-((R)-2-Methyl-pyrrolidin-1-yl)-propoxy]-phenyl}-2-[4-(4-trifluoromethyl-phenyl)-piperazin-1-yl]-ethanone] | 0.1 to 100 nM | 0.1 to 100 nM | 230 to 233 °C | 
5 | CC1(C)CCCN1CCCOc1ccc(C(=O)CN2CCOCC2)cc1 [Example 88, 1-{4-[3-(2,2-Dimethyl-pyrrolidin-1-yl)-propoxy]-phenyl}-2-morpholin-4-yl-ethanone] | > 1000 nM | > 1000 nM | 117 to 120 °C | 
6 | C[C@@H]1CCCN1CCCOc1ccc(C(=O)CN2CCN(C(=O)OC(C)(C)C)CC2)cc1 [Example 117, 4-(2-{4-[3-((R)-2-Methyl-pyrrolidin-1-yl)-propoxy]-phenyl}-2-oxo-ethyl)-piperazine-1-carboxylic acid tert-butyl ester] | 0.1 to 100 nM | 0.1 to 100 nM | 198 to 199 °C | 
7 | CC1CCCC(C)N1CC(=O)c1ccc(OCCCN2CCC[C@H]2C)cc1 (stereo partly drawn) [Example 61, 2-(2,6-Dimethyl-piperidin-1-yl)-1-{4-[3-((R)-2-methyl-pyrrolidin-1-yl)-propoxy]-phenyl}-ethanone] | 0.1 to 100 nM | 0.1 to 100 nM | 127 to 135 °C | 
8 | C[C@@H]1CCCN1CCCOc1ccc(C(=O)CN2CCCc3ccccc32)cc1 [Example 108, 2-(3,4-Dihydro-2H-quinolin-1-yl)-1-{4-[3-((R)-2-methyl-pyrrolidin-1-yl)-propoxy]-phenyl}-ethanone] | 0.1 to 100 nM | 0.1 to 100 nM | 166 to 168 °C | 
9 | C[C@@H]1CCCN1CCCOc1ccc(C(=O)CN2CCN(C(=O)Oc3ccccc3)CC2)cc1 [Example 128, 4-(2-{4-[3-((R)-2-Methyl-pyrrolidin-1-yl)-propoxy]-phenyl}-2-oxo-ethyl)-piperazine-1-carboxylic acid phenyl ester] | 0.1 to 100 nM | 0.1 to 100 nM | 194 to 199 °C | 
10 | C[C@@H]1CCCN1CCCOc1ccc(C(=O)CN2CCN(c3ncccn3)CC2)cc1 [Example 90, 1-{4-[3-((R)-2-Methyl-pyrrolidin-1-yl)-propoxy]-phenyl}-2-(4-pyrimidin-2-yl-piperazin-1-yl)-ethanone] | 0.1 to 100 nM | 0.1 to 100 nM | 112 to 114 °C | 
11 | C[C@@H]1CCCN1CCCOc1ccc(C(=O)CN2CCC(F)(F)C2)cc1F [Example 139, 2-(3,3-Difluoro-pyrrolidin-1-yl)-1-{3-fluoro-4-[3-((R)-2-methyl-pyrrolidin-1-yl)-propoxy]-phenyl}-ethanone] | 0.1 to 100 nM | 0.1 to 100 nM | 206 °C | 
12 | C[C@@H]1CCCN1CCCOc1ccc(C(=O)CN2CCC(F)(F)CC2)cc1F [Example 141, 2-(4,4-Difluoro-piperidin-1-yl)-1-{3-fluoro-4-[3-((R)-2-methyl-pyrrolidin-1-yl)-propoxy]-phenyl}-ethanone] | 0.1 to 100 nM | 101 to 500 nM | 220 °C | 

Now from value to molecule, other results behind:

Row | Ki (human H3 receptor) | Ki [1, 2] | melting point | SMILES | Ki [1]
13 | 0.1 to 100 nM | 0.1 to 100 nM | 214 to 217 °C | C[C@@H]1CCCN1CCCOc1ccc(C(=O)CN2CCN(C(=O)c3cc4ccccc4s3)CC2)cc1 [Example 124, 2-[4-(Benzo[b]thiophene-2-carbonyl)-piperazin-1-yl]-1-{4-[3-((R)-2-methyl-pyrrolidin-1-yl)-propoxy]-phenyl}-ethanone] | 
14 | 0.1 to 100 nM | 0.1 to 100 nM | 81 °C | C[C@@H]1CCCN1CCCOc1ccc(C(=O)CN2CCN(C(=O)N(C)C)CC2)cc1F [Example 123] | 
15 | 0.1 to 100 nM | 101 to 500 nM | 111 °C | C[C@@H]1CCCN1CCCOc1c(Cl)cc(C(=O)CN2CCN(C(=O)c3ccccc3)CC2)cc1Cl [Example 96, 2-(4-Benzoyl-piperazin-1-yl)-1-{3,5-dichloro-4-[3-((R)-2-methyl-pyrrolidin-1-yl)-propoxy]-phenyl}-ethanone] | 
16 | 0.1 to 100 nM | 0.1 to 100 nM | 152 to 156 °C | C[C@@H]1CCCN1CCCOc1ccc(C(=O)CN2CCN(C(=O)c3cccs3)CC2)cc1 [Example 80, 1-{4-[3-((R)-2-Methyl-pyrrolidin-1-yl)-propoxy]-phenyl}-2-[4-(thiophene-2-carbonyl)-piperazin-1-yl]-ethanone] | 
17 | 0.1 to 100 nM | 0.1 to 100 nM | 88 to 90.5 °C | C[C@@H]1CCCN1CCCOc1ccc(C(=O)CN2CCN(C(=O)c3ccc(Cl)c(Cl)c3)CC2)cc1 [Example 129, 2-[4-(3,4-Dichloro-benzoyl)-piperazin-1-yl]-1-{4-[3-((R)-2-methyl-pyrrolidin-1-yl)-propoxy]-phenyl}-ethanone] | 
18 | 0.1 to 100 nM | 0.1 to 100 nM | 115.4 to 120 °C | C[C@@H]1CCCN1CCCOc1ccc(C(=O)CN2CCN(C(=O)c3ccc4ccccc4n3)CC2)cc1 [Example 145, 1-{4-[3-((R)-2-Methyl-pyrrolidin-1-yl)-propoxy]-phenyl}-2-[4-(quinoline-2-carbonyl)-piperazin-1-yl]-ethanone] | 
